Measurements from patent US20140005276A1, “COMPOSITIONS COMPRISING SUBSTITUTED PHENOLS AND TOPICAL APPLICATION THEREOF” (priority 2012, published 2014).

Tests used:
[1] = test system: NF-kB; test: NF-κB INHIBITION TEST (NF-kB luciferase reporter, TNFα-stimulated H9c2 cells); type: cell-based, Rat
Method: The NF-κB INHIBITION TEST was conducted as follows. Rat cardiac myoblasts H9c2 cells were purchased from ATCC (Manassas, Va.). Cultures were maintained in Dulbecco's modified Eagle's medium (DMEM, Invitrogen Life Technologies, Carlsbad, Calif.) supplemented with 10% fetal bovine serum, 100 units/ml penicillin, and 50 ug/ml streptomycin (Invitrogen life technologies, Carlsbad, Calif.). 1×10^4 cells grown in 96-well plates were transiently transfected with 0.45 ug total DNA per well using Lipofectamine 2000 (Invitrogen life technologies, Carlsbad, Calif.). In all transfections, a construct with the thymidine kinase promoter and the Renilla luciferase reporter gene (pRL-TK, Promega, Madison Wis.) was included as an internal control in addition to the NF-kB luciferase promoter. One day after transfection, cells were treated with the indicated samples (in DMSO as vehicle) at indicated concentrations and stimulated with 100 ng/mL of Tumor Necrosis Factor-α (TNFα, Sigma-Aldrich, St Louis, Mo.) for approximately 24 hours before they were lysed for luciferase assays, using Dual-Luciferase Reporter System from Promega (Madison, Wis.), following manufacturer's protocol. Briefly, the firefly luciferase activity was measured first (representing NF-kB promoter activity), followed by the renilla luciferase (internal control), using luminometer LMAX, from Molecular Devices (Sunnyvale, Calif.). The ratio of these two luciferase activities (RLU) was used to evaluate the activity of each promoter:
NF-κB Inhibition=[1−(RLUsample/RLUcontrol)]*100
where RLUsample and RLUcontrol are the normalized luciferase activity ratios of the sample and control, respectively.
Percent NF-kB Inhibition is also reported.

[2] = test system: Collagenase; test: Collagenase inhibition, EnzCheck assay; type: biochemical
Method: Collagenase inhibition was measured using EnzCheck® assay (Molecular Probes, Eugene, Oreg.) according to the manufacturer's instructions. Test materials were evaluated over a wide range of concentrations. Fluorescence was measured after 2-3 hours using a microplate reader set with the wavelength combination 485/530 nm

[3] = 10 ug/mL, TNFα 100 ng/ml stimulated H9c2 cells
[4] = 0.0001% by weight of alkylphenol
[5] = 0.001% by weight of alkylphenol

**Q.** How did the “Percent NF-kB Inhibition relative to vehicle” value ([1]; 0.2 ug/ml, vehicle 0.1% DMSO) turn out when `Oc1ccc(/C=C/c2cc(O)cc(/C=C/c3ccc(O)cc3)c2)cc1` [1-hydroxyl 3,5-bis(4′hydroxylstyryl)benzene] was run?
**A.** 0.5%

**Q.** What about the “Percent NF-kB Inhibition relative to vehicle” value ([1]; 0.5 ug/ml, vehicle 0.1% DMSO) of the same compound?
**A.** 22.1%

**Q.** What about the “Percent NF-kB Inhibition relative to vehicle” value ([1]; 1 ug/ml, vehicle 0.1% DMSO) of the same compound?
**A.** 51.7%

**Q.** What about the “Percent NF-kB Inhibition relative to vehicle” value ([1]; 2 ug/ml, vehicle 0.1% DMSO) of the same compound?
**A.** 71.0%

**Q.** What about the “Percent NF-kB Inhibition relative to vehicle” value ([1]; 4 ug/ml, vehicle 0.1% DMSO) of the same compound?
**A.** 96.1%

**Q.** For `CCCCCc1ccc(O)cc1` [4-amylphenol], which “Percent NF-kB Inhibition relative to vehicle” value [1, 3] is on record?
**A.** 54.2%

**Q.** What about the “Percent Inhibition of Collagenase” value [2, 4] of the same compound?
**A.** 29.42%

**Q.** What about the “Percent Inhibition of Collagenase” value [2, 5] of the same compound?
**A.** 29.30%

**Q.** And the “Percent Inhibition of Collagenase” value ([2]; 0.01% by weight of alkylphenol)?
**A.** 34.19%

**Q.** And the “Percent Inhibition of Collagenase” value ([2]; 0.1% by weight of alkylphenol)?
**A.** 44.66%

**Q.** And the “Percent Inhibition of Collagenase” value ([2]; 1% by weight of alkylphenol)?
**A.** 53.33%

**Q.** Which “Percent Inhibition of Collagenase” value [2, 4] does the source give for `CCCCc1ccc(O)cc1` [4-butylphenol] here?
**A.** 26.55%

**Q.** And the “Percent Inhibition of Collagenase” value [2, 5]?
**A.** 23.16%

**Q.** What about the “Percent Inhibition of Collagenase” value ([2]; 0.01% by weight of alkylphenol) of the same compound?
**A.** 26.81%

**Q.** What about the “Percent Inhibition of Collagenase” value ([2]; 0.1% by weight of alkylphenol) of the same compound?
**A.** 54.38%

**Q.** What about the “Percent Inhibition of Collagenase” value ([2]; 1% by weight of alkylphenol) of the same compound?
**A.** 59.51%

**Q.** With `CCCCCCc1ccc(O)cc1` [4-hexylphenol] as the compound, how does the “Percent Inhibition of Collagenase” value [2, 4] read?
**A.** 19.57%

**Q.** And the “Percent Inhibition of Collagenase” value [2, 5]?
**A.** 16.90%

**Q.** And the “Percent Inhibition of Collagenase” value ([2]; 0.01% by weight of alkylphenol)?
**A.** 27.67%

**Q.** And the “Percent Inhibition of Collagenase” value ([2]; 0.1% by weight of alkylphenol)?
**A.** 28.82%

**Q.** And the “Percent Inhibition of Collagenase” value ([2]; 1% by weight of alkylphenol)?
**A.** 46.13%

**Q.** Which “Percent NF-kB Inhibition relative to vehicle” value [1, 3] does the source give for `CCCc1ccc(O)cc1` [4-propylphenol, reference compound] here?
**A.** (−49.2%)

**Q.** And the “Percent NF-kB Inhibition relative to vehicle” value ([1]; 25 ug/mL, TNFα 100 ng/ml stimulated H9c2 cells)?
**A.** (−59.1%)
